Reference: US20150272939A1, “Identification of Small Molecule Inhibitors of Jumonji AT-Rich Interactive Domain 1A (JARID1A) and 1B (JARID1B) Histone Demethylase” (Yale University, priority 2012, published 2015)
Structures can show the parent of a compound that is named as a salt. Where two headings read alike, the source gives them in different places.

Key:
JARID1B = biological target: T1, JARID1B (Homo sapiens, UniProt Q9UGL1); assay: FLAG-JARID1B histone demethylase assay with AlphaScreen detection (HTS and dose response); assay type: biochemical; settings: for Assay − Artifact Signal (percent): assay signal minus artifact signal; for inhibition at 20 µM / Inhibitory effect (percent): high-throughput screen, compound 20 μM; for inhibition at 20 µM: read-out: Inhibitory effect (percent); for Assay Signal (percent) / Validation result of HTS active: effect of the compound in the JARID1B AlphaScreen demethylase assay: validation of HTS actives; for Assay Signal (percent): effect of compound in JARID1B AlphaScreen assay; for Validation result of HTS active: effect of the compound in the JARID1B AlphaScreen demethylase assay: total signal before subtraction of artifact signal;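 as to Assay Signal (percent): compound tested at 20 µM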;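 as to Assay − Artifact Signal (percent): compound tested at 20 µM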;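 as to all read-outs here: FLAG-tagged JARID1B at 4 nM acting on a biotinylated H3K4me3 peptide, demethylation read by AlphaScreen luminescence, with hits checked against bio-H3K4me2 without enzyme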
T1 construct: The FLAG tagged full length JARID1B enzyme was expressed in Sf21 insect cells using FLAG-JARID1B baculoviruses; FLAG (N); made in house; host or cells: Sf21 insect cells (baculovirus)
T1 sequence (Q9UGL1 whole entry): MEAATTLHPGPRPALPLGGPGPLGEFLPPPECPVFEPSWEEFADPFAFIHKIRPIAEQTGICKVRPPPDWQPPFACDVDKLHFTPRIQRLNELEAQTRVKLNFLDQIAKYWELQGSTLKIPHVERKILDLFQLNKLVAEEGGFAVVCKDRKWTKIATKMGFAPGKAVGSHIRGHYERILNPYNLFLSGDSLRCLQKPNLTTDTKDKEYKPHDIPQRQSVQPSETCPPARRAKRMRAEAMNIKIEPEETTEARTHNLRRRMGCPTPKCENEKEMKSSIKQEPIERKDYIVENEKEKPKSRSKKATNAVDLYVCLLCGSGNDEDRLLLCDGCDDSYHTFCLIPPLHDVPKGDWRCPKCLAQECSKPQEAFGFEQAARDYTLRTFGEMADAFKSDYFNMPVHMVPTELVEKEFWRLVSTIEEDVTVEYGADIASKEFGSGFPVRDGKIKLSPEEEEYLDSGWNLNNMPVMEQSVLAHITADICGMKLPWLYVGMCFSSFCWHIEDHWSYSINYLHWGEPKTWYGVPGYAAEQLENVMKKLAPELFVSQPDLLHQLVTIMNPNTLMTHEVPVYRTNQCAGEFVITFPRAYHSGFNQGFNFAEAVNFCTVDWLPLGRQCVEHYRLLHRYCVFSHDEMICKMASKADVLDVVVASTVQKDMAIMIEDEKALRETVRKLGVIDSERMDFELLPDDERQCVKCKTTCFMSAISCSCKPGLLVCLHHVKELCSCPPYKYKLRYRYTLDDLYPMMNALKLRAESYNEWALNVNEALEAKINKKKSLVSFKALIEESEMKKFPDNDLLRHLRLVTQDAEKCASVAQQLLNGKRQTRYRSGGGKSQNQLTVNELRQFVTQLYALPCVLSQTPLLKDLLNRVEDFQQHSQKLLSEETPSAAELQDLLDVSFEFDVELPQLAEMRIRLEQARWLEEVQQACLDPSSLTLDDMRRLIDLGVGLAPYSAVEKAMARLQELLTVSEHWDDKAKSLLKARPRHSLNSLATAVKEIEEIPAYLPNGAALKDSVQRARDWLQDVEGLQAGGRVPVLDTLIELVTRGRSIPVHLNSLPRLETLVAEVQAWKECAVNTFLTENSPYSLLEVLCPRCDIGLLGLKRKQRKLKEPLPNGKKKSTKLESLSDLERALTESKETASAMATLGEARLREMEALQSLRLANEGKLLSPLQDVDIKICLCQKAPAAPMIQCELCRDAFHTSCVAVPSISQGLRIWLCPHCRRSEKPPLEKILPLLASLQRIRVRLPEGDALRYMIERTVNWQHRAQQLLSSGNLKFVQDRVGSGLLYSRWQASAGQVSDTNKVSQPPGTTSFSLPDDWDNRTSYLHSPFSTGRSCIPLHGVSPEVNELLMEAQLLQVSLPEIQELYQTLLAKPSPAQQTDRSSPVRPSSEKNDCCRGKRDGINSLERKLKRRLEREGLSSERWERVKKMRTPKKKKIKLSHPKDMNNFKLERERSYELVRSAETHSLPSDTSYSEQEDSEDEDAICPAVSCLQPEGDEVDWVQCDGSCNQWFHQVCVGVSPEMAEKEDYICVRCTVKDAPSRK

[1] = AlphaScreen counterscreen against bio-H3K4me2 peptide in the absence of enzyme (artifact signal); settings: for Artifact Signal (percent): effect of the compound when incubated with bio-H3K4me2 peptide (counterscreen, no enzyme); for Artifact signal: effect of the compound when it is incubated with bio-H3K4me2 peptide: counterscreen, no enzyme;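 as to all read-outs here: counterscreen run without enzyme against bio-H3K4me2 peptide to remove false positive hits from the JARID1 demethylase AlphaScreen screen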
[2] = standard demethylase conditions (10 μM α-KG, 50 μM Fe (II))
[3] = IDs marked *: additional hits under reaction condition with 1 mM α-KG

SMILES	Assay − Artifact Signal (percent) (JARID1B)	inhibition at 20 µM (JARID1B; [2])	Assay Signal (percent) (JARID1B)	Artifact Signal (percent) [1]	Validation result of HTS active: effect of the compound in the JARID1B AlphaScreen demethylase assay (JARID1B)	Artifact signal: effect of the compound when it is incubated with bio-H3K4me2 peptide [1]	inhibition at 20 µM (JARID1B; [3])	Inhibitory effect (percent) (JARID1B; [2])	Inhibitory effect (percent) (JARID1B; [3])
CC(C)NCC(O)c1ccc(O)c(O)c1 (stereo not shown) [YU033874, ISOPROTERENOL HYDROCHLORIDE, reference compound]	35.20%	47.7%	32.81%	−2.38%					
Cc1ccc(C)c(CN2CCN(Cc3ccccc3)CC2)c1 [YU105182]		35.3%			3.14	−1.74			
O=c1cc(-c2cc(O)c(O)c(O)c2)oc2cc(O)cc(O)c12 [YU155308, HIERACIN, reference compound]		40.7%			34.84	92.13			
COc1ccc(C)cc1NC(c1cccnc1)c1ccc2cccnc2c1O (stereo not shown) [YU172175]	11.16%	48.5%	48.09%	36.93%					
O=Cc1ccc(-c2ccc(S(=O)(=O)O)cc2)o1 [YU146454]	68.83%	42.3%	64.68%	−4.14%					
S=c1[nH]cnc2nc[nH]c12 [YU033892, MERCAPTOPURINE, reference compound]	35.94%		33.79%	−2.15%			56%		
C[C@@](Cc1ccc(O)c(O)c1)(NN)C(=O)O [YU034292, CARBIDOPA, reference compound]	26.51%	100%	80.27%	53.76%					
Cc1cc2c(C(C)C)c(O)c(O)c(C=O)c2c(O)c1-c1c(C)cc2c(C(C)C)c(O)c(O)c(C=O)c2c1O [YU034280, GOSSYPOL-ACETIC ACID COMPLEX, reference compound]		78.2%			54.61	64.46			
CCOc1cc(Cl)c(S(=O)(=O)n2ccnc2)cc1Cl [YU152583]		45.9%			1.32	−4.74			
COc1cccc(O)c1O [YU155465, 3-METHOXYCATECHOL, reference compound]	48.87%	56.5%	56.84%	7.97%					
Cn1c(C(C#N)=Cc2ccncc2)nc2ccccc21 (single isomer, unassigned) [YU146842]	104.16%	90.8%	97.21%	−6.95%					
O=c1c(-c2cc(O)c(O)c(O)c2)coc2cc(O)c(O)c(O)c12 [YU155411, IRIGENOL, reference compound]	31.75%	94.9%	22.64%	−9.11%					
NS(=O)(=O)c1cccc(NC(=O)c2cccnc2Oc2ccccc2)c1 [YU016812]		34.2%			10.22	13.27			
CCOc1c(O)ccc(C=O)c1[N+](=O)[O-] [YU145037]		66.1%			−4.02	−1.09			
C=CCn1c(S)nnc1CNC(=O)c1cccc(C)c1 [YU149014]	49.04%	35.7%	47.61%	−1.43%					
O=c1c(O)c(-c2ccc(O)c(O)c2)oc2cc(O)cc(O)c12 [YU034090, QUERCETIN, reference compound]					62.82	58.14		80.17%	
NC(=O)NO [YU033863, HYDROXYUREA, reference compound]	21.20%		13.20%	−8.00%					43.49%
CC(=O)[C@]1(O)Cc2c(O)c3c(c(O)c2[C@@H](O[C@H]2C[C@H](N)[C@H](O)[C@H](C)O2)C1)C(=O)c1ccccc1C3=O.Cl (stereo in doubt) [YU040321, IDARUBICIN HCl, reference compound]		92.3%			−11.32	−9.53			
CNC[C@H](O)c1ccc(O)c(O)c1 [YU033809, ADRENALINE BITARTRATE, reference compound]	47.54%	56.3%	40.90%	−6.64%					
CCN(CC)C(=S)SSC(=S)N(CC)CC [YU035331, reference compound]	40.15%		36.77%	−3.39%			40.5%		
Nc1c([N+](=O)[O-])cc(F)c(N2CCOCC2)c1Br [YU152451]		74.6%			2.82	−3.09			
CCC(=O)c1c(O)n(C)c(=O)n(C)c1=O [YU145029]	34.42%	61.6%	34.53%	0.11%					
O=C(O)CSc1nc2cc(F)c(N3CCOCC3)cc2[nH]1 [YU151409]		45.1%			4.03	−0.23			
CCOC(=O)c1ccc(NC(c2cccnc2)c2ccc3cccnc3c2O)cc1 (stereo not shown) [YU172168]		37.1%			44.99	37.50			
Cn1c(S)nnc1CSCc1ccc(F)cc1 [YU147498]	23.24%	31.1%	19.36%	−3.87%					
CCCSc1nc2c3c(sc2c(=O)[nH]1)CC(C)(CC)OC3 (stereo not shown) [YU153031]	9.19%	97%	9.27%	0.09%					
c1cc(CNc2ccc(N3CCOCC3)cc2)ccn1 [YU129874]	67.88%	74.5%	72.06%	4.18%					
